# In PubChem BioAssay AID2060909 (Molecular Pharmacology Branch, DTP, NCI, 2025):
# Tested on: 362531-283-R-J2-PDC complex spheroid viability
# Assay: Anticancer human tumor 362531-283-R-J2-PDC patient-derived colon adenocarcinoma cell line growth inhibition [RAS]
# Conditions: for viability, T/C: stronger effect = lower value
# Procedure, shortened: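 Agents were tested in combination matrices in half-log decrements from a top concentration at or near clinical Cmax (10 microM if undetermined). Targets were multi-cell spheroids of tumour lines plus HUVEC and MSC stromal cells.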
# [1] = curve of first compound, second compound 0.00316 µM
# [2] = curve of first compound, second compound 0.01 µM
# [3] = curve of first compound, second compound 0.0316 µM
# [4] = curve of first compound, second compound 0.1 µM
# [5] = curve of first compound, second compound 0.316 µM
# [6] = curve of first compound, second compound 1 µM
# [7] = second compound 0.00316 µM, first compound 0.0316 µM
# [8] = second compound 0.00316 µM, first compound 0.1 µM
# [9] = second compound 0.00316 µM, first compound 0.316 µM
# [10] = second compound 0.00316 µM, first compound 1 µM
# [11] = second compound 0.00316 µM, first compound 3.16 µM
# [12] = second compound 0.00316 µM, first compound 10 µM
# [13] = second compound 0.01 µM, first compound 0.0316 µM
# [14] = second compound 0.01 µM, first compound 0.1 µM
# [15] = second compound 0.01 µM, first compound 0.316 µM
# [16] = second compound 0.01 µM, first compound 1 µM
# [17] = second compound 0.01 µM, first compound 3.16 µM
# [18] = second compound 0.01 µM, first compound 10 µM
# [19] = second compound 0.0316 µM, first compound 0.0316 µM
# [20] = second compound 0.0316 µM, first compound 0.1 µM
# [21] = second compound 0.0316 µM, first compound 0.316 µM
# [22] = second compound 0.0316 µM, first compound 1 µM
# [23] = second compound 0.0316 µM, first compound 3.16 µM
# [24] = second compound 0.0316 µM, first compound 10 µM
# [25] = second compound 0.1 µM, first compound 0.0316 µM
# [26] = second compound 0.1 µM, first compound 0.1 µM
# [27] = second compound 0.1 µM, first compound 0.316 µM
# [28] = second compound 0.1 µM, first compound 1 µM
# [29] = second compound 0.1 µM, first compound 3.16 µM
# [30] = second compound 0.1 µM, first compound 10 µM
# [31] = second compound 0.316 µM, first compound 0.0316 µM
# [32] = second compound 0.316 µM, first compound 0.1 µM
# [33] = second compound 0.316 µM, first compound 0.316 µM
# [34] = second compound 0.316 µM, first compound 1 µM
# [35] = second compound 0.316 µM, first compound 3.16 µM
# [36] = second compound 0.316 µM, first compound 10 µM
# [37] = second compound 1 µM, first compound 0.0316 µM
# [38] = second compound 1 µM, first compound 0.1 µM
# [39] = second compound 1 µM, first compound 0.316 µM
# [40] = second compound 1 µM, first compound 1 µM
# [41] = second compound 1 µM, first compound 3.16 µM
# [42] = second compound 1 µM, first compound 10 µM
# 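Further: spheroids exposed to the agents for 7 days before readout.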
# 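Wherever viability, T/C is given: luminescence viability as percent of DMSO vehicle control wells.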
compound,measurement,setting,value
NC1c2ccccc2OC12CCN(c1cnc3c(N4CCCc5ncccc54)n[nH]c3n1)CC2 (stereo not drawn) + C=CC(=O)N1CCN(c2nc(OCC3CCCN3C)nc3c(F)c(-c4nc(N)cc(C)c4C(F)(F)F)c(Cl)cc23)C(C)C1,IC50,[1],3.84 µM
same,IC50,[2],5.87 µM
same,IC50,[3],4.67 µM
same,IC50,[4],6.19 µM
same,IC50,[5],7.66 µM
same,IC50,[6],8.02 µM
same,"viability, T/C",[7],102%
same,"viability, T/C",[8],76.8%
same,"viability, T/C",[9],83.8%
same,"viability, T/C",[10],60%
same,"viability, T/C",[11],56.2%
same,"viability, T/C",[12],37.9%
same,"viability, T/C",[13],92.1%
same,"viability, T/C",[14],82.2%
same,"viability, T/C",[15],75.1%
same,"viability, T/C",[16],72.5%
same,"viability, T/C",[17],57.8%
same,"viability, T/C",[18],42.3%
same,"viability, T/C",[19],89.4%
same,"viability, T/C",[20],86.7%
same,"viability, T/C",[21],73.3%
same,"viability, T/C",[22],66.6%
same,"viability, T/C",[23],58.3%
same,"viability, T/C",[24],38.4%
same,"viability, T/C",[25],93%
same,"viability, T/C",[26],83.6%
same,"viability, T/C",[27],79.2%
same,"viability, T/C",[28],64%
same,"viability, T/C",[29],61.9%
same,"viability, T/C",[30],43%
same,"viability, T/C",[31],94.4%
same,"viability, T/C",[32],91.6%
same,"viability, T/C",[33],78.4%
same,"viability, T/C",[34],68.9%
same,"viability, T/C",[35],65.7%
same,"viability, T/C",[36],44.5%
same,"viability, T/C",[37],91%
same,"viability, T/C",[38],79.2%
same,"viability, T/C",[39],74.7%
same,"viability, T/C",[40],70%
same,"viability, T/C",[41],61.9%
same,"viability, T/C",[42],45.7%
C[C@@H](NC(=O)c1ncnc(N)c1Cl)c1ncc(C(=O)Nc2cc(C(F)(F)F)c(Cl)cn2)s1 + C=CC(=O)N1CCN(c2nc(OCC3CCCN3C)nc3c(F)c(-c4nc(N)cc(C)c4C(F)(F)F)c(Cl)cc23)C(C)C1,IC50,[1],> 10 µM
same,IC50,[2],> 10 µM
same,IC50,[3],> 10 µM
same,IC50,[4],> 10 µM
same,IC50,[5],> 10 µM
same,IC50,[6],> 10 µM
same,"viability, T/C",[7],102%
same,"viability, T/C",[8],109%
same,"viability, T/C",[9],115%
same,"viability, T/C",[10],99.1%
same,"viability, T/C",[11],84.9%
same,"viability, T/C",[12],63.8%
same,"viability, T/C",[13],103%
same,"viability, T/C",[14],95%
same,"viability, T/C",[15],93.1%
same,"viability, T/C",[16],97.6%
same,"viability, T/C",[17],87.3%
same,"viability, T/C",[18],67.4%
same,"viability, T/C",[19],107%
same,"viability, T/C",[20],99.7%
same,"viability, T/C",[21],98.6%
same,"viability, T/C",[22],105%
same,"viability, T/C",[23],91.2%
same,"viability, T/C",[24],63.4%
same,"viability, T/C",[25],104%
same,"viability, T/C",[26],112%
same,"viability, T/C",[27],97.9%
same,"viability, T/C",[28],96.3%
same,"viability, T/C",[29],99.9%
same,"viability, T/C",[30],60.3%
same,"viability, T/C",[31],103%
same,"viability, T/C",[32],95.2%
same,"viability, T/C",[33],100%
same,"viability, T/C",[34],103%
same,"viability, T/C",[35],102%
same,"viability, T/C",[36],67.2%
same,"viability, T/C",[37],107%
same,"viability, T/C",[38],104%
same,"viability, T/C",[39],99.3%
same,"viability, T/C",[40],106%
same,"viability, T/C",[41],97.7%
same,"viability, T/C",[42],63.6%
CCn1c(-c2cccnc2C(C)OC)c2c3cc(ccc31)N1CCOC(CC(NC(=O)C(C(C)C)N(C)C(=O)C3(F)CCN(C(=O)C#CC(C)(C)N(C)C)CC3)C(=O)N3CCCC(N3)C(=O)OCC(C)(C)C2)C1 (stereo not drawn),"viability, T/C",compound 0.000949 µM,103% [middle of 8 runs]
same,"viability, T/C",compound 0.003 µM,102% [middle of 8 runs]
same,"viability, T/C",compound 0.00949 µM,107% [middle of 8 runs]
same,"viability, T/C",compound 0.03 µM,103% [middle of 8 runs]
same,"viability, T/C",compound 0.0949 µM,104% [middle of 8 runs]
same,"viability, T/C",compound 0.3 µM,100% [middle of 8 runs]
same,IC50,"compound alone, run of 07/09/2024",> 0.3 µM
CCC(CC)c1cc(NC2CCC(N)C2)n2nccc2n1 (stereo not drawn) + C#Cc1c(F)ccc2cc(O)cc(-c3ncc4c(N5CC6CCC(C5)N6)nc(OCC56CCCN5CC(F)C6)nc4c3F)c12,IC50,[3],4.96 µM
same,IC50,[4],4.36 µM
same,IC50,[5],5.07 µM
same,IC50,[6],1.82 µM
same,IC50,"curve of first compound, second compound 3.16 µM",1.5 µM
same,IC50,"curve of first compound, second compound 10 µM",0.338 µM
same,"viability, T/C",[19],96.9%
same,"viability, T/C",[20],107%
same,"viability, T/C",[21],99.9%
same,"viability, T/C",[22],105%
same,"viability, T/C",[23],79%
same,"viability, T/C",[24],4.8%
same,"viability, T/C",[25],105%
same,"viability, T/C",[26],98.8%
same,"viability, T/C",[27],101%
same,"viability, T/C",[28],88%
same,"viability, T/C",[29],70%
same,"viability, T/C",[30],3.26%
same,"viability, T/C",[31],117%
same,"viability, T/C",[32],96.9%
same,"viability, T/C",[33],89.5%
same,"viability, T/C",[34],83.3%
same,"viability, T/C",[35],87.2%
same,"viability, T/C",[36],2.95%
same,"viability, T/C",[37],80.4%
same,"viability, T/C",[38],88.3%
same,"viability, T/C",[39],82.2%
same,"viability, T/C",[40],82.9%
same,"viability, T/C",[41],19.8%
same,"viability, T/C",[42],4.12%
same,"viability, T/C","second compound 3.16 µM, first compound 0.0316 µM",72.4%
same,"viability, T/C","second compound 3.16 µM, first compound 0.1 µM",76.3%
same,"viability, T/C","second compound 3.16 µM, first compound 0.316 µM",68.1%
same,"viability, T/C","second compound 3.16 µM, first compound 1 µM",79.2%
same,"viability, T/C","second compound 3.16 µM, first compound 3.16 µM",5.75%
same,"viability, T/C","second compound 3.16 µM, first compound 10 µM",3.27%
same,"viability, T/C","second compound 10 µM, first compound 0.0316 µM",44.2%
same,"viability, T/C","second compound 10 µM, first compound 0.1 µM",49.4%
same,"viability, T/C","second compound 10 µM, first compound 0.316 µM",58.1%
same,"viability, T/C","second compound 10 µM, first compound 1 µM",36.2%
same,"viability, T/C","second compound 10 µM, first compound 3.16 µM",7.13%
same,"viability, T/C","second compound 10 µM, first compound 10 µM",4.45%
